The term IC50 denotes the concentration needed to halve the response being measured.

Here are results for 13 compounds from US7618983B2, “Bicyclic triazole α4 integrin inhibitors” (Janssen Pharmaceutica, N.V., priority 2004, dated 2009).

One experiment has as its target T1, human α4β7 integrin (Homo sapiens, UniProt P13612+P26010).
T1 construct: expressed in transfected cells; host or cells: K562 cells, stably transfected
T1 sequence (P13612 34-1032): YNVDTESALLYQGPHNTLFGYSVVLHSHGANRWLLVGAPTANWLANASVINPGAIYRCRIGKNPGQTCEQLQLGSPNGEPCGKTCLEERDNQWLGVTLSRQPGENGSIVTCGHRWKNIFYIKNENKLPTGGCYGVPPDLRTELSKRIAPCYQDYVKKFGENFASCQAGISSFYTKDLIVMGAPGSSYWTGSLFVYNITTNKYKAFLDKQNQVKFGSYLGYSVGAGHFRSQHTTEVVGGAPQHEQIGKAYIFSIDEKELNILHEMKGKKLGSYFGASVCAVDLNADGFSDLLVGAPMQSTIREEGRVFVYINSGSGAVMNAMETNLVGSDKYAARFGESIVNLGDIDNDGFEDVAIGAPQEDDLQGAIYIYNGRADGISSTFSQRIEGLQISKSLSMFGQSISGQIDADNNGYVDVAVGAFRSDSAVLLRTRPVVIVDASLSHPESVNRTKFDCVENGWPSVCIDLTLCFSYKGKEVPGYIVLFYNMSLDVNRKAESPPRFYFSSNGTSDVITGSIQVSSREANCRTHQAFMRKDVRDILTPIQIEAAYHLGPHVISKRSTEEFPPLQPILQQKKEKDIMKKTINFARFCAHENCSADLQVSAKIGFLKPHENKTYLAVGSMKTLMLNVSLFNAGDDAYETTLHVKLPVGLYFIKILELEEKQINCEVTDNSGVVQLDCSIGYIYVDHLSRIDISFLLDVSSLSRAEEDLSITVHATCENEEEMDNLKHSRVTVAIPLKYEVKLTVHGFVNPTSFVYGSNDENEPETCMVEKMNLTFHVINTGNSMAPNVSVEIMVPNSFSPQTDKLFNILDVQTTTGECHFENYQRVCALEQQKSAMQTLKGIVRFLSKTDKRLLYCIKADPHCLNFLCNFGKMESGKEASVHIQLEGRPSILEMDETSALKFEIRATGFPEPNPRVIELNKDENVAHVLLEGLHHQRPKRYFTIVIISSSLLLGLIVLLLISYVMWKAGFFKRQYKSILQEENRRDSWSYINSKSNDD
T1 sequence (P26010 20-798): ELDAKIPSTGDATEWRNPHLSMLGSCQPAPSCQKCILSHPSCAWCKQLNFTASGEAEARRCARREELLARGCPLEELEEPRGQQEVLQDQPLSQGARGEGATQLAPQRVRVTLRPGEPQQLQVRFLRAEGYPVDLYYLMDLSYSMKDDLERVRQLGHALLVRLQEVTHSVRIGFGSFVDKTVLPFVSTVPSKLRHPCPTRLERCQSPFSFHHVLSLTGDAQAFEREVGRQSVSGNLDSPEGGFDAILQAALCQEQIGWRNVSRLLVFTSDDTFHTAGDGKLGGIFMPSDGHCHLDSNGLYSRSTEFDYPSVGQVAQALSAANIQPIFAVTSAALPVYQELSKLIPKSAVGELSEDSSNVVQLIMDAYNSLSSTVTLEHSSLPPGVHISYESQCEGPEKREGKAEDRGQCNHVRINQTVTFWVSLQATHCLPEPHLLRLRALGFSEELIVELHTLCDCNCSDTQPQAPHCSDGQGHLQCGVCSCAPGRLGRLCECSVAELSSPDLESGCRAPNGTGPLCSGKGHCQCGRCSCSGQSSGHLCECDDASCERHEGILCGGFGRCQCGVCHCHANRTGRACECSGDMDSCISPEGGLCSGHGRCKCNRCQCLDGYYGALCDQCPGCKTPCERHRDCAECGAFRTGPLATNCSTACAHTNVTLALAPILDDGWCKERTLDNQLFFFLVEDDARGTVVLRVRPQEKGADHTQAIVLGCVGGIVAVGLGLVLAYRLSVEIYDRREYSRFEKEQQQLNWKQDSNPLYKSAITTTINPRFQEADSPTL
The experiment is described as follows: α4β7-K562 Cell Adhesion Assay (α4β7 Mediated Adhesion/MAdCAM-1). The experiment is classed as cell-based. The procedure:
α4β7-K562 Cell Adhesion Assay (α4β7 Mediated Adhesion/MAdCAM-1)
M2 anti-FLAG antibody coated 96-well plates (Sigma) were coated for 1 hour at 4° C. with 2-8 μl/well recombinant FLAG-hMAdCAM-1 contained in 100 μL of Dulbecco's PBS, pH 7.4, with 1% BSA and 1 mM Mn^2+ (PBS-BSA-Mn). Plates were washed once with PBS-BSA-Mn. Buffer was removed and compounds to be tested (50 μL) were added at 2 times concentration. Stably transfected K562 cells expressing human α4β7 integrin, (50 μL at 2×10^6/mL) that had been labeled with 100 μg/mL carboxymethyl fluorescein diacetate succinimidyl ester (CFDA-SE; Molecular Probes) for 15 min at 37° C. were added to each well and allowed to adhere for 1 h at room temperature. Plates were washed 4 times in PBS-BSA-Mn and then cells were lysed for 2 minutes by addition of 100 μL of PBS without Ca, Mg supplemented with 0.1 M NaOH. The plate was read on a 96-well fluorescent plate reader at 485 nm excitation and 530 nm emission.

A further experiment deals with α4β1 (Homo sapiens, UniProt P05556+P13612). The experiment is described as follows: Ramos Cell Adhesion Assay (α4β1 Mediated Adhesion/VCAM-1). Also on record: Ramos Cell Adhesion Assay (α4β1 Mediated Adhesion/VCAM-1); endogenous in cells; host or cells: Ramos cells. The class given is cell-based. The method, then:
Ramos Cell Adhesion Assay (α4β1 Mediated Adhesion/VCAM-1)
Immulon 96 well plates (Dynex) were coated with 100 μL recombinant hVCAM-1 at 4.0 μg/mL in 0.05 M NaCO3 buffer pH 9.0 overnight at 4° C. (R&D Systems). Plates were washed 3 times in PBS with 1% BSA and blocked for 1 h @ room temperature in this buffer. PBS was removed and compounds to be tested (50 μL) were added at 2× concentration. Ramos cells, (50 μL at 2×10^6/mL) labeled with 5 μM Calcein AM (Molecular Probes) for 1 h at 37° C., were added to each well and allowed to adhere for 1 h at room temperature. Plates were washed 3× in PBS+1% BSA and cells were lysed for 15 minutes in 100 μL of 1 M Tris pH 8.0 with 1% SDS. The plate was read at 485 nm excitation and 530 nm emission.

Where [1] appears, read: K562 cells expressing human α4β7 adhering to FLAG-hMAdCAM-1, 1 mM Mn2+, read-out: α4β7, Madcam IC50.
Where [2] appears, read: Ramos cells adhering to recombinant hVCAM-1, read-out: α4β1 IC50.

Read-outs that look alike come from different tables or passages of the source.

Sequence of α4β1 (P05556 21-798, one chain of several): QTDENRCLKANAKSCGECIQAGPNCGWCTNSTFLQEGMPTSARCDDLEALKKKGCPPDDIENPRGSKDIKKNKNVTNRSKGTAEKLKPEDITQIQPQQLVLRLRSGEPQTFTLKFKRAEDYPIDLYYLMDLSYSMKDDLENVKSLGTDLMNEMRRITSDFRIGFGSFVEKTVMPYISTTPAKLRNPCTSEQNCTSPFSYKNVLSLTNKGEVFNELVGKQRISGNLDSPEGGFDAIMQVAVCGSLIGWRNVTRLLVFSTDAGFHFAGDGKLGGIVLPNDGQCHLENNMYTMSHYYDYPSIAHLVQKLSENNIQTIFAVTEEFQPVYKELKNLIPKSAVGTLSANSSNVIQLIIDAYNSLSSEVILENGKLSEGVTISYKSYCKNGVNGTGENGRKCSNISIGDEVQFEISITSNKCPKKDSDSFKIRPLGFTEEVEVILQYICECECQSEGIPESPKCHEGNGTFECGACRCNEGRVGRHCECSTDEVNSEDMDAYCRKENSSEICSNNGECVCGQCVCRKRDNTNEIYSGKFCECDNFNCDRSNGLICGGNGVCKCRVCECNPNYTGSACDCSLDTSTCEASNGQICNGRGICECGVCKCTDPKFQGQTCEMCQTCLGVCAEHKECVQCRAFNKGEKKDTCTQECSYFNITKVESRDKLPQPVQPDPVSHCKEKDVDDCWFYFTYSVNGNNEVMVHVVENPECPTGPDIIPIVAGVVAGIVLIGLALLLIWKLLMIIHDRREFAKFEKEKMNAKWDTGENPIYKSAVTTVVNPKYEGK

As to `COc1cnn(C)c(=O)c1-c1ccc(C[C@H](NC(=O)[C@@H]2CCc3nnc(Cc4ccccc4)n32)C(=O)O)cc1` [Cpd 17, 2-(S)-[(3-Benzyl-6,7-dihydro-5H-pyrrolo[2,1-c][1,2,4]triazole-5-(S)-carbonyl)-amino]-3-[4-(5-methoxy-2-methyl-3-oxo-2,3-dihydro-pyridazin-4-yl)-phenyl]-propionic acid], the IC50 at human α4β7 integrin (setting [1]) came out at 0.4 µM; at α4β1 (setting [2]) it was 0.64 µM.

Take `O=C(Nc1ccc(C[C@H](NC(=O)[C@@H]2CCc3nnc(Cc4ccccc4)n32)C(=O)O)cc1)c1cccc2c1-c1ccccc1C2=O` [Cpd 8, 2-(S)-[(3-Benzyl-6,7-dihydro-5H-pyrrolo[2,1-c][1,2,4]triazole-5-(S)-carbonyl)-amino]-3-{4-[(9-oxo-9H-fluorene-4-carbonyl)-amino]-phenyl}-propionic acid]: the IC50 on human α4β7 integrin (setting [1]) was 0.35 µM; at α4β1 (setting [2]), 1.56 µM.

Take `CN(C)C(=O)Oc1ccc(C[C@H](NC(=O)C2CCCc3nnc(Cc4ccccc4)n32)C(=O)O)cc1` (stereo partly drawn) [Cpd 2, 2-(S)-[(3-Benzyl-5,6,7,8-tetrahydro-[1,2,4]triazolo[4,3-a]pyridine-5-carbonyl)-amino]-3-(4-dimethylcarbamoyloxy-phenyl)-propionic acid]: the IC50 is 1.66 µM against human α4β7 integrin and 5.09 µM at α4β1.

As to `O=C(Nc1ccc(C[C@H](NC(=O)[C@@H]2CCc3nnc(Cc4ccccc4)n32)C(=O)O)cc1)c1cccc2ccccc12` [Cpd 5, 2-(S)-[(3-Benzyl-6,7-dihydro-5H-pyrrolo[2,1-c][1,2,4]triazole-5-(S)-carbonyl)-amino]-3-{4-[(naphthalene-1-carbonyl)-amino]-phenyl}-propionic acid], the IC50 at human α4β7 integrin (setting [1]) and at α4β1 (setting [2]) was over 5 µM throughout.

Take `O=C(Nc1ccc(C[C@H](NC(=O)[C@@H]2CCc3nn(Cc4ccccc4)c(=O)n32)C(=O)O)cc1)c1c(Cl)cncc1Cl` [Cpd 21, 2-(S)-[(2-Benzyl-3-oxo-2,5,6,7-tetrahydro-3H -pyrrolo[2,1-c][1,2,4]triazole-5-(S)-carbonyl)-amino]-3-{4-[(3,5-dichloro-pyridine-4-carbonyl)-amino]-phenyl}-propionic acid]: the IC50 is 0.78 µM on human α4β7 integrin (setting [1]) and over 5 µM at α4β1 (setting [2]).

As to `O=C(Nc1ccc(C[C@H](NC(=O)[C@@H]2CCc3nnc(Cc4ccccc4)n32)C(=O)O)cc1)c1c(Cl)cncc1Cl` [Cpd 9, 2-(S)-[(3-Benzyl-6,7-dihydro-5H-pyrrolo[2,1-c][1,2,4]triazole-5-(S)-carbonyl)-amino]-3-{4-[(3,5-dichloro-pyridine-4-carbonyl)-amino]-phenyl}-propionic acid], the IC50 at human α4β7 integrin (setting [1]) amounted to 0.02 µM; at α4β1 (setting [2]), 0.08 µM.

Turning to `O=C(Nc1ccc(C[C@H](NC(=O)[C@@H]2CCc3nn(Cc4ccccc4)c(=O)n32)C(=O)O)cc1)c1c(Cl)cccc1Cl` [Cpd 19, 2-(S)-[(2-Benzyl-3-oxo-2,5,6,7-tetrahydro-3H-pyrrolo[2,1-c][1,2,4]triazole-5-(S)-carbonyl)-amino]-3-[4-(2,6-dichloro-benzoylamino)-phenyl]-propionic acid], the values for the IC50 at human α4β7 integrin (setting [1]) and on α4β1 (setting [2]) were 0.2 µM and over 5 µM, respectively.

In the case of `O=C(Nc1ccc(C[C@H](NC(=O)[C@@H]2CCc3n[nH]c(=O)n32)C(=O)O)cc1)c1c(Cl)cncc1Cl` [Cpd 20, 3-{4-[(3,5-Dichloro-pyridine-4-carbonyl)-amino]-phenyl}-2-(S)-[(3-oxo-2,5,6,7-tetrahydro-3H-pyrrolo[2,1-c][1,2,4]triazole-5-(S)-carbonyl)-amino]-propionic acid], the figures for the IC50 on human α4β7 integrin (setting [1]) and at α4β1 (setting [2]) were 0.05 µM and 0.45 µM, respectively.

In the case of `O=C(Nc1ccc(C[C@H](NC(=O)[C@@H]2CCc3nnc(Cc4ccccc4)n32)C(=O)O)cc1)c1ccc2ccccc2c1` [Cpd 6, 2-(S)-[(3-Benzyl-6,7-dihydro-5H-pyrrolo[2,1-c][1,2,4]triazole-5-(S)-carbonyl)-amino]-3-{4-[(naphthalene-2-carbonyl)-amino]-phenyl}-propionic acid], the IC50 at human α4β7 integrin (setting [1]) and at α4β1 (setting [2]) was over 5 µM in each case.

As for `O=C(Nc1ccc(C[C@H](NC(=O)[C@@H]2CCc3n[nH]c(=O)n32)C(=O)O)cc1)c1c(Cl)cccc1Cl` [Cpd 18, 3-[4-(2,6-Dichloro-benzoylamino)-phenyl]-2-(S)-[(3-oxo-2,5,6,7-tetrahydro-3H-pyrrolo[2,1-c][1,2,4]triazole-5-(S)-carbonyl)-amino]-propionic acid], the IC50 at human α4β7 integrin (setting [1]) was determined as 0.09 µM; at α4β1 (setting [2]) it was 0.85 µM.

`O=C(Nc1ccc(C[C@H](NC(=O)[C@@H]2CCc3nnc(Cc4ccsc4)n32)C(=O)O)cc1)c1c(Cl)cccc1Cl` [Cpd 12, 3-[4-(2,6-Dichloro-benzoylamino)-phenyl]-2-(S)-[(3-thiophen-3-ylmethyl-6,7-dihydro-5H-pyrrolo[2,1-c][1,2,4]triazole-5-(S)-carbonyl)-amino]-propionic acid]: the IC50 was determined as 0.12 µM at human α4β7 integrin (setting [1]) and 0.38 µM on α4β1 (setting [2]).

For the compound `COc1cccc(OC)c1-c1ccc(C[C@H](NC(=O)[C@@H]2CCc3nnc(Cc4ccsc4)n32)C(=O)O)cc1` [Cpd 15, 3-(2′,6′-Dimethoxy-biphenyl-4-yl)-2-(S)-[(3-thiophen-3-ylmethyl-6,7-dihydro-5H-pyrrolo[2,1-c][1,2,4]triazole-5-(S)-carbonyl)-amino]-propionic acid], the values for the IC50 at human α4β7 integrin (setting [1]) and at α4β1 (setting [2]) were 0.09 µM and 0.71 µM, respectively.

Take `NCc1nnc2n1[C@H](C(=O)N[C@@H](Cc1ccc(NC(=O)c3c(Cl)cccc3Cl)cc1)C(=O)O)CC2` [Cpd 14, 2-(S)-[(3-Aminomethyl-6,7-dihydro-5H-pyrrolo[2,1-c][1,2,4]triazole-5-(S)-carbonyl)-amino]-3-[4-(2,6-dichloro-benzoylamino)-phenyl]-propionic acid]: the concentration for half-maximal inhibition (IC50) at α4β1 (setting [2]) is over 5 µM.
